Data as given in patent publication US20240324627A1, “USE OF A FEED ADDITIVE IN LOW ENERGY FEED FOR PIGS” (Alzchem Trostberg GmbH, priority 2021, published 2024).

How the values were obtained:
[1] = system: fattening pigs; assay: 39-day feeding experiment in fattening pigs with low energy feed; type: in vivo
Source text: In a 39-day feeding experiment, three different feed concepts were fed to fattening pigs with an initial weight of ˜65 kg. For each feeding concept, 80 pigs in 16 pens (5 animals per pen) were examined. The pens were exclusively occupied by animals of the same gender, i.e. females or non-castrated boars, in a 1:1 gender ratio. The three different feed groups were optimized for the content of metabolic energy (ME) and the other raw nutrients based on the supply recommendations of the NRC (National Research Council of the National Academies, 2012: Nutrient requirements of Swine/Committee on Nutrient Requirements of Swine, Board on Agriculture and Natural Resources, Division on Earth and Life Studies.-11th rev. ed. p. cm.). A positive control group with 13.0 MJ ME covering the energy requirements was compared with a negative control group with 12.8 MJ ME reduced by 0.2 MJ. In a guanidinoacetic acid group supplemented with 600 g/t, an energy content of 12.7 MJ ME was adjusted. The fattening phase lasted 39 days. On day 40, the animals that had already reached the slaughter weight of ˜108 kg were slaughtered. For this reason, data was recorded on this day. The rations were based on wheat, wheat semolina bran, rapeseed extraction meal and soy extraction meal. Animal fat was also added in relevant amounts. The diets were isonitrogenous, i.e. the supply of crude protein and digestible amino acids was identical in all three treatment groups. [table] Feed conversion is the amount of feed consumed that leads to a weight gain of the animal of one kilogram. Energy utilization is the energy intake per kilogram of weight gain.

[2] = system: pigs; settings: Weber et al. 2017, cited from earlier work
[3] = 600 g/t (0.06%) in 12.7 MJ ME/kg feed

N=C(N)NCC(=O)O [guanidinoacetic acid, Guanidinoacetic acid]
Daily feed intake, day 1-39 [1, 3]: 2223 g
Daily weight gain, day 1-39 [1, 3]: 828 g
Energy utilization, day 1-39 [1, 3]: 34.2 MJ ME/kg gain
Feed conversion, day 1-39 [1, 3]: 2.69 kg feed/kg gain
Live weight, day 39 [1, 3]: 96.2 kg
Average slaughter weight ([1]; 600 g/t in 12.7 MJ ME/kg feed): 107.3 kg
Daily weight gains in the fattening phase ([1]; 600 g/t in 12.7 MJ ME/kg feed): approximately 830 g/d
Energy deficit compensated ([1]; addition of 600 g/t, daily feed intake at level of positive control): 0.2 MJ ME
Improvement of feed conversion ratio compared to the negative control ([1]; fattening phase, vs 12.8 MJ ME negative control): 23 points
Improvement of feed conversion ratio compared to the positive control ([1]; fattening phase, vs 13.0 MJ ME positive control): 6 points
Less energy required per kg gain vs negative control ([1]; fattening phase, vs negative control): 4.3 MJ ME
Less energy required per kg gain vs positive control ([1]; fattening phase, vs positive control): 2.1 MJ ME
Average number of fattening days (from the start of the fattening phase) ([1]; until slaughter, 600 g/t in 12.7 MJ ME/kg feed): 52
Energy utilization improvement ([1]; vs positive control): approximately 5.8%
Feed conversion improvement ([1]; vs positive control): approximately 2.2%
Feed uptake ([2]; addition to high energy feed): slightly lower
Daily increase (weight gain) ([2]; common feed): only a slight daily increase at the threshold of significance
Feed conversion ([2]; common feed): slight improvement
